In experiment [1] the test system is PAO1. Nature of the experiment: microbe, parasite or virus in culture. Type of experiment: cell-based, Pseudomonas aeruginosa. An excerpt: Supplement DataSheet_1.docx, table 1: Table S1 Minimum inhibitory concentrations of various drugs against PAO1 | column: MIC(μg/mL)
The test system of experiment [2] is PAO1 planktonic and dispersed bacteria. Nature of the experiment: Inducible resistance, multi-step induction over 25 generations. Type of experiment: cell-based, Pseudomonas aeruginosa. The settings on record: for increase in the MIC value after induction: 25 continuous generations, induction with the agent alone at 1/4 MIC, consistent across planktonic and dispersed bacteria; for MIC values after co-induction with CRAMP-34: antibiotic at 1/4 MIC combined with CRAMP-34 at 1/4 MIC, 25 generations, vs antibiotic alone, planktonic and dispersed bacteria. As for the experimental part: Bacterial resistance was induced in vitro using a modified multi-step method ([Zhu et al., 2017]). The method of obtaining dispersed bacteria was described previously ([Zhang et al., 2022]). Planktonic bacteria and biofilm dispersion bacteria were induced at the initial 1/4 MIC concentration of antimicrobial agents every 24 hours. The latest MIC was measured every 2 generations and the drug concentration was changed according to the latest results.

In experiment [3] the test system is surface-attached biofilm. The settings on record: exogenous addition of succinate and glutamate; ref Sauer et al., 2004; cited from earlier work.
For experiment [4], the system named is PAO1 preformed biofilms. The experiment in a line: Effect of exogenous glutamate and succinate on PAO1 preformed biofilm biomass. The settings on record: preformed 96-h-old biofilms, different concentrations, 37°C, 24 h; certain dose-dependent effect (one way ANOVA).
Where [5] appears, read: Pseudomonas aeruginosa, read-out: MIC.

This is an account of results in paper PMC10757720, “Impact of CRAMP-34 on Pseudomonas aeruginosa biofilms and extracellular metabolites” (Frontiers in Cellular and Infection Microbiology, 2023).

Values after ≈ are worked out from the molar mass of the structure shown. Read-outs that look alike come from different tables or passages of the source. Positions of bridges follow the written chain, without caps; N, C: chain ends. Non-standard residues stand in square brackets, D forms with d. Residues, ends and D or L forms follow the SMILES beside them. No end group written: not given here. *: point of attachment. X1 = CC[C@H](C)CCCCC(=O)*; Dab = NCC[C@H](N)C(=O)O

For `NCC[C@H](O)C(=O)N[C@@H]1C[C@H](N)[C@@H](O[C@H]2O[C@H](CN)[C@@H](O)[C@H](O)[C@H]2O)[C@H](O)[C@H]1O[C@H]1O[C@H](CO)[C@@H](O)[C@H](N)[C@H]1O` [Amikacin], in experiment [1] (setting [5]), the MIC turned out to be 0.25 µg/mL (≈ 0.427 µM). On the same count and under the same terms, the figure for `CC[C@H]1OC(=O)[C@H](C)[C@@H](O[C@H]2C[C@@](C)(OC)[C@@H](O)[C@H](C)O2)[C@H](C)[C@@H](O[C@@H]2O[C@H](C)C[C@H](N(C)C)[C@H]2O)[C@](C)(O)C[C@@H](C)CN(C)[C@H](C)[C@@H](O)[C@]1(C)O` [Azithromycin] is 16 µg/mL (≈ 21.4 µM). As to `CCN1CCN(C(=O)N[C@@H](C(=O)N[C@@H]2C(=O)N3C(C(=O)O)=C(CSc4nnnn4C)CS[C@H]23)c2ccc(O)cc2)C(=O)C1=O` [Cefoperazone], the MIC in experiment [1] (setting [5]) was found to be 4 µg/mL (≈ 6.2 µM). For the compound `CO/N=C(\C(=O)N[C@@H]1C(=O)N2C(C(=O)[O-])=C(C[n+]3cccc4c3CCCC4)CS[C@H]12)c1csc(N)n1.O=S(=O)(O)O` [Cefoquinol], the MIC in experiment [1] is 2 µg/mL. Turning to `CC(C)(O/N=C(\C(=O)N[C@@H]1C(=O)N2C(C(=O)[O-])=C(C[n+]3ccccc3)CS[C@H]12)c1csc(N)n1)C(=O)O` [Ceftazidime], the MIC in experiment [1] (setting [5]) is 1 µg/mL (≈ 1.83 µM).

Regarding `O=C(O)c1cn(C2CC2)c2cc(N3CCNCC3)c(F)cc2c1=O` [Ciprofloxacin], in experiment [2], the “increase in the MIC value after induction” value is recorded as “sixty-fourfold” and the “MIC values after co-induction with CRAMP-34” value is “significantly reduced”. The MIC in experiment [1] (setting [5]) was 0.031 µg/mL (≈ 0.0936 µM). Regarding `CC[C@H](C)CCCCC(=O)N[C@@H](CCN)C(=O)N[C@H](C(=O)N[C@@H](CCN)C(=O)N[C@H]1CCNC(=O)[C@H]([C@@H](C)O)NC(=O)[C@H](CCN)NC(=O)[C@H](CCN)NC(=O)[C@H](CC(C)C)NC(=O)[C@@H](CC(C)C)NC(=O)[C@H](CCN)NC1=O)[C@@H](C)O` [Colistin] (X1-[Dab]T[Dab][Dab][Dab][dL]L[Dab][Dab]T; lactam 4-C (inferred); N-terminus assumed), in experiment [2], the “increase in the MIC value after induction” value is listed as “thirty-twofold” and the “MIC values after co-induction with CRAMP-34” value is “significantly reduced”. The MIC in experiment [1] turned out to be 0.25 µg/mL (≈ 0.214 µM).

On to `CCN1CCN(c2cc3c(cc2F)c(=O)c(C(=O)O)cn3C2CC2)CC1` [Enrofloxacin], for which, in experiment [1] (setting [5]), the MIC turned out to be 0.5 µg/mL (≈ 1.39 µM).

As to `CNC(C)C1CCC(N)C(OC2C(N)CC(N)C(OC3OCC(C)(O)C(NC)C3O)C2O)O1` (centres unmarked) [Gentamicin], the MIC in experiment [1] (setting [5]) was found to be 0.5 µg/mL (≈ 1.05 µM). Turning to `C[C@@H](O)[C@H]1C(=O)N2C(C(=O)O)=C(SCCN=CN)C[C@H]12` [Imipenem], in experiment [1] (setting [5]), the MIC was found to be 2 µg/mL (≈ 6.68 µM). On the same count and under the same terms, the figure for `C[C@@H](O)[C@H]1C(=O)N2C(C(=O)O)=C(S[C@@H]3CN[C@H](C(=O)N(C)C)C3)[C@H](C)[C@H]12` [Meropenem] is 0.5 µg/mL (≈ 1.3 µM). Take `CCN1CCN(C(=O)N[C@@H](C(=O)N[C@@H]2C(=O)N3[C@@H]2SC(C)(C)[C@@H]3C(=O)O)c2ccccc2)C(=O)C1=O` [Piperacillin]: the MIC in experiment [1] (setting [5]) is 2 µg/mL (≈ 3.86 µM). In the case of `CC[C@H]1OC(=O)[C@H](C)[C@@H](O[C@H]2C[C@@](C)(OC)[C@@H](O)[C@H](C)O2)[C@H](C)[C@@H](O[C@@H]2O[C@H](C)C[C@H](N(C)C)[C@H]2O)[C@](C)(O)C[C@@H](C)/C(=N\OCOCCOC)[C@H](C)[C@@H](O)[C@]1(C)O` [Roxithromycin], in experiment [1] (setting [5]), the MIC was 512 µg/mL (≈ 612 µM).

The compound `CN[C@H](CC(C)C)C(=O)N[C@H]1C(=O)N[C@@H](CC(N)=O)C(=O)N[C@H]2C(=O)N[C@H]3C(=O)N[C@H](C(=O)N[C@H](C(=O)O)c4cc(O)cc(O)c4-c4cc3ccc4O)[C@H](O)c3ccc(c(Cl)c3)Oc3cc2cc(c3O[C@@H]2O[C@H](CO)[C@@H](O)[C@H](O)[C@H]2O[C@H]2C[C@](C)(N)[C@H](O)[C@H](C)O2)Oc2ccc(cc2Cl)[C@H]1O` [Vancomycin] yielded an MIC in experiment [1] (Pseudomonas aeruginosa) of 1020 µg/mL (≈ 707 µM). Regarding `N[C@@H](CCC(=O)O)C(=O)O` [glutamate], in experiment [3], the “reduction in surface-attached biofilm biomass” value is recorded as ~80%. For the same compound, in experiment [4], the “effect of exogenous addition on pre-biofilms (biomass)” value is “significant effects on eradicating pre-biofilms”. As for `O=C(O)CCC(=O)O` [succinate], the “reduction in surface-attached biofilm biomass” value in experiment [3] is ~80%. For the same compound, the “effect of exogenous addition on pre-biofilms (biomass)” value in experiment [4] is given as “significant effects on eradicating pre-biofilms”. In turn, “GLLRKGGEKIGEKLKKIGQKIKNFFQKLVPQPEQ [CRAMP-34]” registered an MIC in experiment [1] of 31.25 µg/mL.
